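In this assay, cells in 96-well plates receive the compound at five concentrations for 48 hours. Endpoints are linearly interpolated between the surrounding concentrations. At the GI50, growth is halved. TGI is the concentration that stops growth completely.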
Tests used:
Test in all cases: NCI tumour cell line growth inhibition, 48 h
M14 melanoma = tested on: M14 melanoma
HT29 colon = tested on: HT29 colon
UO-31 renal = tested on: UO-31 renal
SR leukemia = tested on: SR leukemia
HOP-62 NSCLC = tested on: HOP-62 NSCLC
A549 NSCLC = tested on: A549 NSCLC
COLO 205 colon = tested on: COLO 205 colon
HOP-92 NSCLC = tested on: HOP-92 NSCLC
SF-268 CNS = tested on: SF-268 CNS
DU-145 prostate = tested on: DU-145 prostate

| Structure (SMILES) | TGI (M14 melanoma) [µM] | TGI (HT29 colon) [µM] | TGI (UO-31 renal) [µM] | TGI (SR leukemia) [µM] | TGI (HOP-62 NSCLC) [µM] | TGI (A549 NSCLC) [µM] | TGI (COLO 205 colon) [µM] | TGI (HOP-92 NSCLC) [µM] | TGI (SF-268 CNS) [µM] | GI50 (M14 melanoma) [µM] | GI50 (HT29 colon) [µM] | GI50 (DU-145 prostate) [µM] | TGI (DU-145 prostate) [µM] | GI50 (UO-31 renal) [µM] | GI50 (HOP-62 NSCLC) [µM] | GI50 (A549 NSCLC) [µM] | GI50 (COLO 205 colon) [µM] | GI50 (HOP-92 NSCLC) [µM] | GI50 (SF-268 CNS) [µM] |
| --- | --- | --- | --- | --- | --- | --- | --- | --- | --- | --- | --- | --- | --- | --- | --- | --- | --- | --- | --- |
| O=C1NC2(CCCCC2)C2CCCCC=C12 (centres undefined) | > 100 | > 100 | > 100 | > 100 | > 100 | > 100 | > 100 | > 100 | > 100 |  |  |  |  |  |  |  |  |  |  |
| COc1cc([C@@H]2OC(=O)C3C2C(=O)O[C@H]3c2ccc(O)c(OC)c2)ccc1O (some centres undefined) | > 100 | > 100 | > 100 | > 100 | > 100 | > 100 | > 100 | > 100 | > 100 |  |  |  |  |  |  |  |  |  |  |
| O=C(COC(=O)c1cccc2c(=O)c3ccccc3[nH]c12)Nc1ccc(Cl)cc1 | > 100 | > 100 | > 100 | > 100 | 78.5 | > 100 | > 100 | > 100 | > 100 |  |  |  |  |  |  |  |  |  |  |
| Cc1cc(Cl)nc(N(CCCNc2ccnc3cc(Cl)ccc23)Cc2cccs2)n1 | 2.91 | 4.04 | 3.71 |  | 10.7 | 12.5 | 3.58 | 7.78 | 16.8 | 1.23 | 0.57 | 2.23 | 14.7 | 0.456 | 1.83 | 2.96 | 1.39 | 1.74 | 3.36 |
| CC(C)(C)C(=O)c1c(C(F)(F)F)n([O-])c2cc(Cl)c(Cl)cc2[n+]1=O | 2.57 | 0.546 | 0.805 |  | 2.89 | 2.39 | 1.69 | 2.78 | 0.902 | 0.998 | 0.192 | 0.353 | 0.803 | 0.403 | 1.53 | 0.952 | 0.683 | 1.47 | 0.457 |
| O=c1cc(-c2ccccc2)oc2cc(OCCCCCN3CCOCC3)cc(O)c12 | > 100 | > 100 | > 100 |  | 23.1 | > 100 | > 100 | 26.6 | > 100 | > 100 | 40.3 | > 100 | > 100 | 32.7 | 10.2 | > 100 | > 100 | 11 | 75.9 |
| COC(=O)c1ccc(NC(=O)c2ccc(NC3=C(Cl)C(=O)N(Cc4ccccc4)C3=O)cc2)cc1 | 30.8 | 51.2 | 31.7 |  | 23.1 | 29.2 | > 100 | 25.4 | 59 | 17.1 | 22.5 | 17.4 | 31.2 | 17.9 | 11.1 | 15.8 | 37 | 12.8 | 22.2 |

Reference: PubChem BioAssay (NCI)
